Assays:
DCMTase = target: T1, DCMTase (Mus musculus, UniProt P13864); test: Steady-state kinetic assays (methyl transfer from tritiated AdoMet to DNA); format: biochemical; set-up: key: C, competitive; NC, noncompetitive; UC, uncompetitive inhibition; conditions: product inhibition
T1 construct: a highly homogeneous, unproteolyzed preparation of DCMTase from mouse erythroleukemia cells (MEL); endogenous in cells; host or cells: mouse erythroleukemia (MEL) cells; endogenous enzyme purified per Xu et al. 1995
Procedure: Single-stranded DNA was heated to 90 °C and quick cooled on ice, prior to initiation of the reaction. Freeze-thawed DNA produced equivalent results. Incubations were at 37 °C for 60 minutes. […] The reaction was stopped after 60 minutes by transferring 20 μL of the reaction onto a DE 81 filter paper that was processed as described (Flynn et al., 1996). The radioactivity above the background, determined from assays without added poly(dI·dC:dI·dC), was converted to initial velocities and expressed as picomoles of methyl groups transferred to poly(dI·dC:dI·dC) per hour and plotted in double reciprocal form. […] Incubations were at 37 °C for 60 minutes. […] The GC-box b concentrations were: diamonds, 0; circles, 0.75 μM; triangles, 1.5 μM; squares, 5.0 μM. Incubations were at 37 °C for 60 minutes. […] Incubations were at 37 °C for 60 minutes. […] Incubations were at 37 °C for 60 minutes. […] The AdoHcy concentrations were: squares, 0; diamonds, 0.75 μM; circles, 1.5 μM; triangles, 3.0 μM; notched squares, 6.0 μM. Incubations were at 37 °C for 60 minutes. […] Incubations were at 37 °C for 60 minutes. […] The AdoHcy concentrations were: squares, 0; diamonds, 15 μM; circles, 30 μM. […] The standard errors associated with fitted parameters and graphical analysis of the experimental data scattered around the calculated best fit lines were also considered in making an assignment.

[1] = substrate: C[S+](CC[C@H](N)C(=O)O)C[C@H]1O[C@@H](n2cnc3c(N)ncnc32)[C@H](O)[C@@H]1O; test: purified protein, by the assay type; conditions: other: true Michaelis constant, equation 2 (sequential mechanism); 20 nM DCMTase; pH 8.0

Nc1ncnc2c1ncn2[C@@H]1O[C@H](CSCC[C@H](N)C(=O)O)[C@@H](O)[C@H]1O [AdoHcy, S-adenosyl-L-homocysteine]
Type of Inhibition (DCMTase; varied substrate AdoMet, fixed substrate IC): C
Type of Inhibition (DCMTase; varied substrate IC, fixed substrate AdoMet): NC/UC

B1: DCMTase (Mus musculus) (protein)
chain: MPARTAPARVPALASPAGSLPDHVRRRLKDLERDGLTEKECVREKLNLLHEFLQTEIKSQLCDLETKLHKEELSEEGYLAKVKSLLNKDLSLENGTHTLTQKANGCPANGSRPTWRAEMADSNRSPRSRPKPRGPRRSKSDSDTLSVETSPSSVATRRTTRQTTITAHFTKGPTKRKPKEESEEGNSAESAAEERDQDKKRRVVDTESGAAAAVEKLEEVTAGTQLGPEEPCEQEDDNRSLRRHTRELSLRRKSKEDPDREARPETHLDEDEDGKKDKRSSRPRSQPRDPAAKRRPKEAEPEQVAPETPEDRDEDEREEKRRKTTRKKLESHTVPVQSRSERKAAQSKSVIPKINSPKCPECGQHLDDPNLKYQQHPEDAVDEPQMLTSEKLSIYDSTSTWFDTYEDSPMHRFTSFSVYCSRGHLCPVDTGLIEKNVELYFSGCAKAIHDENPSMEGGINGKNLGPINQWWLSGFDGGEKVLIGFSTAFAEYILMEPSKEYEPIFGLMQEKIYISKIVVEFLQNNPDAVYEDLINKIETTVPPSTINVNRFTEDSLLRHAQFVVSQVESYDEAKDDDETPIFLSPCMRALIHLAGVSLGQRRATRRVMGATKEKDKAPTKATTTKLVYQIFDTFFSEQIEKYDKEDKENAMKRRRCGVCEVCQQPECGKCKACKDMVKFGGTGRSKQACLKRRCPNLAVKEADDDEEADDDVSEMPSPKKLHQGKKKKQNKDRISWLGQPMKIEENRTYYQKVSIDEEMLEVGDCVSVIPDDSSKPLYLARVTALWEDKNGQMMFHAHWFCAGTDTVLGATSDPLELFLVGECENMQLSYIHSKVKVIYKAPSENWAMEGGTDPETTLPGAEDGKTYFFQLWYNQEYARFESPPKTQPTEDNKHKFCLSCIRLAELRQKEMPKVLEQIEEVDGRVYCSSITKNGVVYRLGDSVYLPPEAFTFNIKVASPVKRPKKDPVNETLYPEHYRKYSDYIKGSNLDAPEPYRIGRIKEIHCGKKKGKVNEADIKLRLYKFYRPENTHRSYNGSYHTDINMLYWSDEEAVVNFSDVQGRCTVEYGEDLLESIQDYSQGGPDRFYFLEAYNSKTKNFEDPPNHARSPGNKGKGKGKGKGKGKHQVSEPKEPEAAIKLPKLRTLDVFSGCGGLSEGFHQAGISETLWAIEMWDPAAQAFRLNNPGTTVFTEDCNVLLKLVMAGEVTNSLGQRLPQKGDVEMLCGGPPCQGFSGMNRFNSRTYSKFKNSLVVSFLSYCDYYRPRFFLLENVRNFVSYRRSMVLKLTLRCLVRMGYQCTFGVLQAGQYGVAQTRRRAIILAAAPGEKLPLFPEPLHVFAPRACQLSVVVDDKKFVSNITRLSSGPFRTITVRDTMSDLPEIQNGASNSEIPYNGEPLSWFQRQLRGSHYQPILRDHICKDMSPLVAARMRHIPLFPGSDWRDLPNIQVRLGDGVIAHKLQYTFHDVKNGYSSTGALRGVCSCAEGKACDPESRQFSTLIPWCLPHTGNRHNHWAGLYGRLEWDGFFSTTVTNPEPMGKQGRVLHPEQHRVVSVRECARSQGFPDSYRFFGNILDRHRQVGNAVPPPLAKAIGLEIKLCLLSSARESASAAVKAKEEAATKD
Km [1]: 1.4 ± 0.2 µM
